Data on 1 molecule can be found in US20070225363A1, “Methods and Agents for Inhibiting Dynamin-Dependent Endocytosis” (the University of Newcastle Research Associates Ltd., priority 2003, published 2007).

Entries after “also recorded” stand apart in the source; their conditions may differ.

Assay [1] addresses T1, dynamin I (Ovis aries, UniProt A0ACI6NZN1). Nature of the assay: [α-32P]-GTP binding assay, dynamin I. The arrangement: species or system sheep. On the procedure:
(§1) The [α-^32P]-GTP-binding assay was performed in the wells of a 96-well microtitre plate. Dynamin (0.2 μg/well) was added to GTPase buffer and incubated for 10 min at 4 C in the dark. [α-^32P]-GTP (2 μCi/tube) was then added to the reaction and incubated for a further 10 min at 4 C. in the dark. The microtitre plate was then irradiated with a short wavelength ultraviolet lamp at […] for 30 min at a distance of 8 cm. The specificity of photolabelling was determined by comparing the labelling in the presence and absence of 1 mM cold GTP. Samples were then applied to nitrocellulose membranes by aspiration through the wells of a 24 well slot blotter. The nitrocellulose was washed 3 times with PBS and dried. Bound nucleotide was detected by a phosphorimager (Molecular Dynamics).

Another assay relates to dynamin II. Nature of the assay: [α-32P]-GTP binding assay, dynamin II. On the procedure:
as §1

In the next assay the test system is Ras. The experiment in a line: [α-32P]-GTP binding to small G protein Ras. Conditions: data not shown. On the procedure: (§2) Competition of these drugs with GTP for the active site of 4 small G proteins (Rab3A, Ras, Arf2, RalA) was also tested.
A further assay has as its system Arf2. The experiment in a line: [α-32P]-GTP binding to small G protein Arf2. Conditions: data not shown. As to the method:
as §2

The next assay addresses T2, RalA (Homo sapiens, UniProt P11233).
T2 sequence (P11233 1-206): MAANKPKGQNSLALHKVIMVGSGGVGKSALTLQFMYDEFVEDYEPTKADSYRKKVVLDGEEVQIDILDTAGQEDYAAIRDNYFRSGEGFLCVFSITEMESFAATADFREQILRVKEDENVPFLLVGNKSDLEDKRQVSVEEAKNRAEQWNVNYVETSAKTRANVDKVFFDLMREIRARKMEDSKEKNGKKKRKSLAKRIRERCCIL
Nature of the assay: [α-32P]-GTP binding to small G protein RalA. As to conditions: data not shown. On the procedure: as §2

Assay [2] deals with isolated nerve terminals (synaptosomes). Nature of the assay: Glutamate release assay (exocytosis) in synaptosomes. Type of assay: cell-based, rat. Conditions: 30 mM KCl. As to the method: The glutamate release assay was performed using enzyme-linked fluorescent detection of released glutamate (Cousin and Robinson., 2000a, b). Briefly, synaptosomes (0.6 mg in 2 ml) were resuspended in either plus (1.2 mM CaCl2) or minus (1 mM EGTA) Ca^2+ Krebs-like solution (118.5 mM NaCl, 4.7 mM KCl, 1.18 mM MgCl2, 0.1 mM Na2HPO4, 20 mM Hepes, 10 mM glucose, pH 7.4) at 37° C. Experiments were started after addition of 1 mM NADP^+. After 1 minute 50 U of glutamate dehydrogenase was added and the synaptosome suspension was stimulated after 4 minutes with 30 mM KCl. Increases in fluorescence due to production of NADPH were monitored in a Perkin-Elmer LS-50B spectrofluorimeter at 340 nm excitation and 460 nm emission. Experiments were standardised by the addition of 4 nmol of glutamate. Data is presented as Ca^2+-dependent glutamate release, calculated as the difference between release in plus and minus Ca^2+ solution for identical stimulation conditions.

Assay [3] deals with isolated rat brain nerve terminals (synaptosomes). Nature of the assay: Electron microscopy of synaptosomes. Type of assay: cell-based. As to conditions: 100 μM. As to the method: Synaptosomes were incubated for 5 min in Krebs-like solution containing 1.2 mM Ca^2+ then stimulated with 30 mM KCl for 2 minutes. […] After stimulation, synaptosomes were pelleted in a microfuge for 1 minute at room temperature then fixed by gentle resuspension in ice-cold phosphate buffered saline supplemented with 5% glutaraldehyde. After 1 hr they were centrifuged at low speed (2500 rpm) for 5 min at room temperature to loosely pellet the synaptosomes. The pellets were washed gently 3 times with MOPs buffer with low spins (2500 rpm) for 7 minutes then gently resuspended in a 10% bourine serum albumin (BSA) in water and allowed to stand for 20 min at room temperature. The synaptosomes were then centrifuged again for 7 minutes at low speed (2500 rpm), overlaid with Karnovsky's fixative and incubated at 4° C. overnight. The pellets were subsequently rinsed and fixed in a buffered solution of osmium tetroxide for 3 hours. Synaptosomes were then rinsed and stained for 1 hour in 2% aqueous uranyl acetate prior to being dried by a series of sequential 10 minute washes: 50% ethanol plus 0.1% NaCl, 70% ethanol plus 0.1% NaCl, 95% ethanol plus 0.1% NaCl, 100% ethanol plus 0.1% NaCl twice and 100% acetone twice. […]

The subject of the next assay is Swiss 3T3 cells. The experiment in a line: Texas Red-transferrin uptake in Swiss 3T3 cells. Type of assay: cell-based. As to conditions: drug added 15 or 60 minutes before Tf-TxR. As to the method:
(§3) Transferrin (Tf) uptake was analysed in Swiss 3T3 and HER14 cells based on methods previously described (van der Bliek et al., 1993). Briefly, cells were plated to 60% confluency in DMEM medium plus 10% foetal calf serum after which the cells were incubated overnight (8-10 hours) in DMEM minus foetal calf serum. Texas red-transferrin (Tf-TxR, Molecular Probes, Oregon) was added to a final concentration of 5 μg/ml and the cells incubated at 37° C. for 10 minutes. Cell surface staining was removed by incubating the cells in an ice cold acid wash solution (0.2 M acetic acid +0.5 M NaCl, pH 2.8) for 15 minutes. Cells were immediately fixed with 4% paraformaldehyde for 10 minutes then washed 3 times with PBS. Nuclei were stained using DAPI (Molecular Probes, Oregon). Slides were mounted using DABCO and the fluorescence was monitored using a Leica DMLB bright field microscope and SPOT digital camera.

The next assay relates to HER14 cells. Nature of the assay: Texas Red-transferrin uptake in HER14 cells. Type of assay: cell-based. Conditions: drug added 15 or 60 minutes before Tf-TxR. On the procedure:
as §3

The target of assay [4] is T1, dynamin I. The experiment in a line: Phospholipid binding and helix assembly (sedimentation assay). Conditions: 10 or 100 μM, PS liposomes.

T1 sequence (A0ACI6NZN1 entry or part of it): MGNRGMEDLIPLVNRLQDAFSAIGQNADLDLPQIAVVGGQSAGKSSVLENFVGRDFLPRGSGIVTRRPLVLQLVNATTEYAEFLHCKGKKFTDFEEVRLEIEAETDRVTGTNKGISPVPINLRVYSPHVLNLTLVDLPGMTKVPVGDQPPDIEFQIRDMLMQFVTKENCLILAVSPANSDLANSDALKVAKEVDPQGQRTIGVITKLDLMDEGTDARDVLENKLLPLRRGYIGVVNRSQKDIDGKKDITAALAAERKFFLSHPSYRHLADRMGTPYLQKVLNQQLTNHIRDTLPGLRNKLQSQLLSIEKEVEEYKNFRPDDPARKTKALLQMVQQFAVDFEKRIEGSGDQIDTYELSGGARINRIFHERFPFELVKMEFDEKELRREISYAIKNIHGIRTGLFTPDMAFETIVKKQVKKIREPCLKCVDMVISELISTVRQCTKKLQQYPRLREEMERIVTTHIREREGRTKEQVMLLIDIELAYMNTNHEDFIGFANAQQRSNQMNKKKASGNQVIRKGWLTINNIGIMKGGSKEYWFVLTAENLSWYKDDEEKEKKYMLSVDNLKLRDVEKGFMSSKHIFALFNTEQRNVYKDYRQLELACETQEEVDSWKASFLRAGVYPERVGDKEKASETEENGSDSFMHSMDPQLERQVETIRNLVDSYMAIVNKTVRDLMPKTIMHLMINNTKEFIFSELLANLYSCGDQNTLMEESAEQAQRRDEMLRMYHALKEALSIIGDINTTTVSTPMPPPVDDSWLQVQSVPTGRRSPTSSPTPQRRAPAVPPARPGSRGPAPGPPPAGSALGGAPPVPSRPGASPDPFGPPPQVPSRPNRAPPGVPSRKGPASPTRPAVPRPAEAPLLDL

On to `N#C/C(=C\c1ccc(O)c(O)c1)C(=O)NCCCNC(=O)/C(C#N)=C/c1ccc(O)c(O)c1` [bis-tyrphostin], for which the “[α-32P]-GTP binding to dynamin I in the presence of drug” value on dynamin I [1] is on record as “not seen to decrease; also recorded: not affected”. For the same molecule, the “[α-32P]-GTP binding to dynamin II in the presence of drug” value in the assay with dynamin II is on record as “not seen to decrease; also recorded: not affected”. Besides, the “effect on [α-32P]-GTP binding to Ras” value in the assay with Ras is “neither drug affected”. The “effect on [α-32P]-GTP binding to Arf2” value in the assay with Arf2 was “neither drug affected”. The “effect on [α-32P]-GTP binding to RalA” value on RalA is “neither drug affected”. Further, in assay [2], the “exocytosis (Ca2+-dependent glutamate release)” value is given as “no effect”. Further, the “morphology of depolarised synaptosomes” value in assay [3] (depolarised with KCl) is “massive depletion of synaptic vesicles”. For the same molecule, the “morphology of unstimulated synaptosomes” value in [3] (unstimulated) is recorded as “no effect on their morphology”. The “internalisation of texas-red labelled transferrin into Swiss 3T3 cells” value with Swiss 3T3 cells is reported as “very large decrease in transferrin staining; also recorded: inhibited”. For the same molecule, in the assay on HER14 cells, the “internalisation of texas-red labelled transferrin into HER14 cells” value was “very large decrease in transferrin staining; also recorded: inhibited”. The “phospholipid binding and dynamin helix assembly” value at dynamin I [4] was “completely unaffected; also recorded: does not block dynamin binding to lipid”.
